Drawing on BindingDB's records for doi:10.1007/s10822-022-00478-x (Roche Innovation Center Basel, F. Hoffmann-La Roche Ltd., 2022), this text covers IC50 for 58 molecules.

The target in the experiment is cAMP and cAMP-inhibited cGMP 3',5'-cyclic phosphodiesterase 10A (Homo sapiens, UniProt Q9Y233). Briefly: PDE10A assay. The method in brief:
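Human PDE10A (2 ng/well) preincubated 15 min RT with compound in HEPES pH 7.5, 10 mM MgCl2, BSA, then reacted 15 min with 50 nM [3H]cGMP/cGMP substrate. Stopped with Y-Si SPA beads; bound radioactivity counted, IC50 from four-parameter logistic, pIC50 = −log10(IC50).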

The structures appear in SMILES notation.

In turn, `O=C(c1nc(C2CC2)cnc1Nc1cncnc1)N1CCN(Cc2ccccc2)CC1` [Roche-Dataset for PDE10A, Compound 1008] registered an IC50 of 371 nM. `CNC(=O)c1cc(NC(=O)c2c(C(=O)N3CCC3)cnn2C)nn1C` [Roche-Dataset for PDE10A, Compound 1021] had an IC50 of 10000 nM. For `Cn1ncc(C(=O)NCc2cccc(C(F)(F)F)n2)c1C(=O)Nc1ccn2cc(-c3ccccc3)nc2n1` [Roche-Dataset for PDE10A, Compound 1157] the value was 4780 nM; for `Cc1cccc(-c2cc(NC(=O)c3c(C(=O)N4CCC4)cnn3C)n[nH]2)n1` [Roche-Dataset for PDE10A, Compound 548], 9.76 nM; for `CNC(=O)c1cc2[nH]c(-c3ccccc3)nc2cc1NC(=O)c1cc[nH]n1` [Roche-Dataset for PDE10A, Compound 619], 390 nM. `Cc1cc(-n2nc(N3CCCC3)nc2CCc2nc3c(C(F)(F)F)cc(Cl)c(C)n3n2)ccn1` [Roche-Dataset for PDE10A, Compound 34] displayed an IC50 of 1.07 nM. Then `COc1c(C)cnc(/C=C/c2nc(-c3ccccc3)cn2C)c1C` [Roche-Dataset for PDE10A, Compound 245], with 987 nM; and `Cc1cc(NC(=O)c2c(C(=O)N3CCC3)cnn2C)n(C2CCCC2)n1` [Roche-Dataset for PDE10A, Compound 1046], with 649 nM; and `Cn1cc(-c2ccccc2)nc1CCc1cnc2ccccc2n1` [US9834564, Compound 20], with 21 nM. Then `Cn1nc(-c2ccc(Cl)cn2)cc1NC(=O)c1nc(C2CC2)ccc1Nc1cncnc1` [US8470820, 39], with 3.16 nM. In the case of `CCOC(=O)c1cnn(C)c1C(=O)Nc1ccn2nc(C(C)C)nc2c1` [Roche-Dataset for PDE10A, Compound 761], half-maximal inhibition (IC50) required 1450 nM. Then `Cn1nc(-c2ccc3ccccc3n2)cc1NC(=O)c1c(C(=O)N2CCC2)cnn1C` [Roche-Dataset for PDE10A, Compound 468], with 0.91 nM. Take `O=C(Nc1ccnc(C(=O)N2CCCCC2)c1)c1nc(C2CC2)cnc1Nc1cncnc1` [Roche-Dataset for PDE10A, Compound 730]: the midpoint of inhibition, the IC50, lay at 67 nM.

Turning to `CC(=O)c1ccc(NC(=O)c2nc(C3CC3)ccc2Nc2cncnc2)s1` [Roche-Dataset for PDE10A, Compound 974], 36 nM corresponded to half-maximal inhibition (IC50).

For `Cn1ncc(C(=O)N2CCOCC2)c1C(=O)Nc1ccn2nc(-n3ccnc3)nc2c1` [Roche-Dataset for PDE10A, Compound 496], the IC50 came to 104 nM.

In the case of `Cn1nc(-c2cccc(Cl)n2)cc1NC(=O)c1nc(C2CC2)ccc1Nc1cncnc1` [US8470820, 41], the midpoint of inhibition, the IC50, lay at 2.77 nM. For `O=C(Nc1cc(-c2ccccc2)no1)c1ccc2cc(-c3ccccc3)nn2c1` [Roche-Dataset for PDE10A, Compound 752] the value was 4500 nM; for `O=C(Nc1ccn(CC2CC2)n1)c1nc(C2CC2)ccc1Nc1cncnc1` [Roche-Dataset for PDE10A, Compound 593], 23 nM. For `CCOC(=O)c1cnn(C)c1C(=O)Nc1ccn2nc(-c3cccnc3)nc2c1` [Roche-Dataset for PDE10A, Compound 268] the value was 34 nM; for `CCc1cnc(C)cc1NC(=O)c1ccc2cc(-c3ccccc3)nn2c1` [Roche-Dataset for PDE10A, Compound 331], 84 nM. Then `O=C(Nc1ccn2nc(-c3ccccc3)nc2c1)c1cncc(Cl)c1` [Roche-Dataset for PDE10A, Compound 385], with 71 nM; and `Cc1ncc(O)c2nc(CCc3nc(N4CCCC4)nn3C)nn12` [Roche-Dataset for PDE10A, Compound 705], with 140 nM. In turn, `O=C1c2ccccc2C(=O)N1CCc1csc(-c2cccnc2)n1` [Roche-Dataset for PDE10A, Compound 292] displayed an IC50 of 5910 nM. For `Cn1ncc(C(=O)N2CCC2)c1C(=O)Nc1ccn(C2CCCCC2)n1` [Roche-Dataset for PDE10A, Compound 1064] the value was 242 nM; for `Cn1ncc(C(=O)N2CCOCC2)c1C(=O)N[C@@H]1CCn2cc(-c3ccccc3Cl)nc2C1` [Roche-Dataset for PDE10A, Compound 457], 2410 nM. Then `CCN(C)C(=O)c1cnn(C)c1C(=O)Nc1ccn2cc(-c3cccc(O)c3)nc2n1` [Roche-Dataset for PDE10A, Compound 73], with 3.47 nM; and `Cn1ncc(C(=O)N2CCC2)c1C(=O)Nc1cc(C2CCC2)n[nH]1` [Roche-Dataset for PDE10A, Compound 1078], with 10000 nM; and `CN(C)C(=O)c1c(F)cccc1NC(=O)c1nc(C2CC2)cnc1Nc1cncnc1` [US8703768, 308], with 0.92 nM. Then `O=C(Nc1ccc(N2CCCC2=O)cc1)c1nc(C2CC2)ccc1Nc1cncnc1` [Roche-Dataset for PDE10A, Compound 733], with 18 nM; and `CCOc1cc(NC(=O)c2nc(C3CC3)cnc2Nc2cncnc2)ccn1` [Roche-Dataset for PDE10A, Compound 765], with 53 nM; and `O=C(Nc1cc(-c2ccc3ccccc3n2)nn1CCO)c1nc(C2CC2)ccc1Nc1cncnc1` [US8470820, 25], with 0.09 nM. In turn, `Cc1c(NC(=O)c2c(C(=O)N3CCC3)cnn2C)ccn2nc(-c3ccccc3)nc12` [Roche-Dataset for PDE10A, Compound 341] had an IC50 of 16 nM.

Molecule `Cn1cc(-c2ccccc2)nc1/C=C/c1nc(N2CCOCC2)c2cc(Cl)ccc2n1` [Roche-Dataset for PDE10A, Compound 64] came in with an IC50 of 1.31 nM.

`Cn1ncc(C(=O)N2CCC2)c1C(=O)Nc1ccc2nc(N3CCOCC3)nn2c1` [Roche-Dataset for PDE10A, Compound 412]: the IC50 worked out at 16 nM. Take `Cc1ncc(C)n2nc(CCc3ncn(-c4ccccc4)n3)nc12` [Roche-Dataset for PDE10A, Compound 400]: the IC50 was 82 nM.

In the case of `Cc1nc(CCNC(=O)c2nc(C3CC3)ccc2Nc2cncnc2)n[nH]1` [Roche-Dataset for PDE10A, Compound 986], the midpoint of inhibition, the IC50, lay at 270 nM. For `CN(C)c1nc2cc(NC(=O)c3c(C(=O)N4CCCC4)cnn3C)ccn2n1` [Roche-Dataset for PDE10A, Compound 489] the value was 5.27 nM; for `CC(C)(O)CNC(=O)c1cccc(NC(=O)c2nc(C3CC3)cnc2Nc2cncnc2)n1` [Roche-Dataset for PDE10A, Compound 894], 5.48 nM. Then `COc1ccc(Cn2nc(CCc3nc4c(Cl)cc(Cl)c(C)n4n3)nc2N2CCCC2)cc1` [Roche-Dataset for PDE10A, Compound 37], with 2.58 nM; and `Clc1ccc2nc(CCc3nc4ccc(Cl)cn4n3)nn2c1` [Roche-Dataset for PDE10A, Compound 780], with 77 nM.

`COCCn1ccc(NC(=O)c2nc(C3CC3)ccc2Nc2cncnc2)n1` [Roche-Dataset for PDE10A, Compound 640]: the IC50 came out at 14 nM. For `O=C(NCc1ncco1)c1nc(C2CC2)cnc1Nc1cncnc1` [Roche-Dataset for PDE10A, Compound 1086] the value was 1030 nM; for `O=C(Nc1ccc(-n2ccccc2=O)cc1)c1nc(C2CC2)ccc1Nc1cncnc1` [Roche-Dataset for PDE10A, Compound 545], 20 nM.

Molecule `COCCN(C)c1nc(CCc2nc3c(C)ncc(C)n3n2)nn1C` [Roche-Dataset for PDE10A, Compound 847] gave an IC50 of 1780 nM. Then `COC1CN(C(=O)c2cnn(C)c2C(=O)Nc2ccn3nc(N4CCOCC4)nc3c2)C1` [Roche-Dataset for PDE10A, Compound 348], with 129 nM; and `CNC(=O)c1cc2[nH]c(-c3ccccc3)nc2cc1NC(=O)c1cc(C)n(C)n1` [Roche-Dataset for PDE10A, Compound 391], with 197 nM.

In turn, `O=C(Nc1ccc(O)c2c1CCCC2=O)c1nc(C2CC2)cnc1Nc1cncnc1` [Roche-Dataset for PDE10A, Compound 949] displayed an IC50 of 10 nM. On to `Cn1ncc(C(=O)N2CCC2)c1C(=O)Nc1ccn2nc(-c3cccc(F)c3)nc2c1` [Roche-Dataset for PDE10A, Compound 140], for which it took 1.06 nM to reach half-maximal inhibition (IC50). Then `CNC(=O)c1cc2[nH]c(-c3ccccc3)nc2cc1NC(=O)c1ccnn1C` [Roche-Dataset for PDE10A, Compound 452], with 14 nM; and `Cc1c(Cl)cc(Cl)c2nc(CCc3nncn3-c3ccccc3)nn12` [Roche-Dataset for PDE10A, Compound 582], with 72 nM; and `CN(C)C(=O)c1cnn(C)c1C(=O)Nc1cc2nc(-c3ccccc3)nn2cn1` [Roche-Dataset for PDE10A, Compound 442], with 0.81 nM.

In the case of `O=C(c1nc(C2CC2)cnc1Nc1cncnc1)N1CCN(CCc2ccccc2)CC1` [Roche-Dataset for PDE10A, Compound 1015], half-maximal inhibition (IC50) was put at 10000 nM. Then `Cc1c(C(F)F)nc2ccc(C#Cc3nc(N4CCCC4)nn3C)nn12` [2-(Difluoromethyl)-3-methyl-6-((1-methyl-3-(pyrrolidin-1-yl)-1H-1,2,4-triazol-5-yl)ethynyl)imidazo[1,2-b]pyridazine], with 4.74 nM; and `Cc1cc(C)n2nc(CCc3nc(N(C)C)nn3C)nc2n1` [Roche-Dataset for PDE10A, Compound 1140], with 535 nM.

With `O=C(Nc1cccc(S(=O)(=O)CCO)c1)c1nc(C2CC2)cnc1Nc1cncnc1` [Roche-Dataset for PDE10A, Compound 734], the IC50 worked out at 8.52 nM. `Cn1ncc(C(=O)N2CCC2)c1C(=O)Nc1ccn(C(F)F)n1` [Roche-Dataset for PDE10A, Compound 1100] had an IC50 of 761 nM. For `CNC(=O)c1cc2[nH]c(-c3ccccc3)nc2cc1NC(=O)c1nc(C2CC2)ccc1Nc1cncnc1` [Roche-Dataset for PDE10A, Compound 621] the value was 0.09 nM; for `O=C(N[C@]12C[C@H]3C[C@H](C[C@H](C3)C1)C2)c1nc(C2CC2)cnc1Nc1cncnc1` [Roche-Dataset for PDE10A, Compound 1143], 788 nM.

As usually defined, the IC50 is the concentration that inhibits the measured activity by half. Low values mean greater potency, high ones weaker potency.
